Consider six compounds from patent publication EP0044992A1, “Lactams, process for their preparation and pharmaceutical compositions containing them” (Dr. Karl Thomae GmbH, priority 1980, dated 1982).

Converted amounts (≈) assume the structure as drawn.

Assay [1] concerns Klebsiella pneumoniae ATCC 10 031. The experiment in a line: Serial dilution test in microtiter system (bacteriostasis, MIC). It counts as cell-based. As to conditions: liquid medium, 18 to 20 h at 37 °C, read-out: Minimale Hemmkonzentration Kl.pneum. ATCC 10031. As for the experimental part: (§1) Für die Untersuchungen wurde die Methode des Reihenverdünnungstestes im Mikrotitersystem angewandt. Die Prüfung der Substanzen auf Bakteriostase erfolgte in flüssigem Medium. Es wurde die Bakteriostasewirkung bei folgenden Konzentrationen untersucht: • 128, 64, 32, 16, 8, 4, 2, 1, 0,5, 0,25, 0,12, 0,06jug/ml. Es wurde ein Nährboden folgender Zusammensetzung benutzt: 10 g Pepton, 8 g Fleischextrakt-Oxoid, 3 g Natriumchlorid, 2 g sek. Natriumphosphat werden mit dest. Wasser auf […] aufgefüllt (pH 7,2 - 7,4). Lediglich bei der Testung gegen Streptokokken wurde 1 % Glucose hinzugefügt. Das Alter der Primärkulturen betrugt etwa 20 Stunden. Die Einstellung der Keimsuspension erfolgte am Photometer (nach "Eppendorf") (Reagenzglas-Durchmesser 14 mm, Filter 546nm) anhand der Trübung einer Bariumsulfat-Vergleichssuspension, die durch eine Bariumsulfat-Aufschwemmung erzeugt wurde, welche durch die Zugabe von 3,0 ml 1%ige Barium-chloridlösung in 97 ml 1%ige Schwefelsäure entstand. Nach der Einstellung wurden Streptococcus Aronson im Verhältnis 1:15 und die übrigen Testkeime im Verhältnis 1:1500 mit einer Kochsalzlösung weiter verdünnt.
(§2) 16 mg der jeweiligen Substanz wurden in 10 ml-Meßkolben eingewogen und mit dem Lösungsmittel bis zur Marke aufgefüllt. Die weitere Verdünnungsreihe wurde mit destilliertem Wasser oder dem jeweiligen Lösungsmittel hergestellt.
(§3) Die Vertiefungen der Mikrotiterplatten wurden mit 0,2 ml Nährmedium, 0,01 ml der entsprechenden Substanzverdünnung und mit einem Tropfen Keimsuspension (0,01 ml) beschickt und 18 bis 20 Stunden bei 37 °C bebrütet. Eine Lösungsmittelkontrolle wurde stets mitgeführt.
(§4) Die Ablesung wurde makroskopisch vorgenommen, wobei die jeweilige Grenzkonzentration (= niedrigste noch bakteriostatisch wirksame Konzentration) ermittelt wurde.
(§5) Als Testorganismen wurden benützt: • Staphylococcus aureus SG 511, Escherichia coli ATCC 11 775, Pseudomonas aeruginosa Hamburgensis und Pseudomonas; aeruginosa walter, Serratia marcescens ATCC 13 880, Klebsiella pneumoniae ATCC 10 031 und BC 6, Proteus mirabilis Hamburgensis, Proteus rettgeri, Enterobacter cloacae ATCC 13 047, E. coli R+TEM (ß-Lactamase-Träger).

Assay [2] concerns Proteus mirabilis Hamburgensis. The description is as above. In kind it is cell-based. As to conditions: liquid medium, 18 to 20 h at 37 °C, read-out: Minimale Hemmkonzentration Prot. mirab. Hbg. The protocol: as §1, §2, §3, §4, §5
The subject of assay [3] is Escherichia coli ATCC 11 775. The assay is described as above. In kind it is cell-based. To be noted: liquid medium, 18 to 20 h at 37 °C, read-out: Minimale Hemmkonzentration E.coli ATCC 11775. The protocol:
as §1, §2, §3, §4, §5

Assay [4] deals with Serratia marcescens ATCC 13 880. The assay is described as above. It counts as cell-based. As to conditions: liquid medium, 18 to 20 h at 37 °C, read-out: Minimale Hemmkonzentration Serr. marcesc. ATCC 13880. The protocol: as §1, §2, §3, §4, §5
Assay [5] has as its system Pseudomonas aeruginosa Hamburgensis. The assay is described as above. It counts as cell-based. To be noted: liquid medium, 18 to 20 h at 37 °C, read-out: Minimale Hemmkonzentration Pseud. Hbg. As for the experimental part: as §1, §2, §3, §4, §5
For assay [6], the system named is Enterobacter cloacae ATCC 13 047. Described as above. To be noted: liquid medium, 18 to 20 h at 37 °C, read-out: Minimale Hemmkonzentration Ent. cloacae ATCC 13047. It counts as cell-based. As for the experimental part:
as §1, §2, §3, §4, §5

The subject of assay [7] is Staphylococcus aureus SG 511. The assay is described as above. It counts as cell-based. As to conditions: SG511, liquid medium, 18 to 20 h at 37 °C, read-out: Minimale Hemmkonzentration Staph. aureus SG 511. As for the experimental part:
as §1, §2, §3, §4, §5

The next assay has as its system Proteus rettgeri. The description is as above. It counts as cell-based. As to conditions: Providencia rettgeri; liquid medium, 18 to 20 h at 37 °C; read-out: Minimale Hemmkonzentration Prot. Rettg. As for the experimental part:
as §1, §2, §3, §4, §5

Assay [8] deals with Pseudomonas aeruginosa walter. The assay is described as above. In kind it is cell-based. To be noted: liquid medium, 18 to 20 h at 37 °C, read-out: Minimale Hemmkonzentration Pseud.W. The protocol:
as §1, §2, §3, §4, §5

For assay [9], the system named is E. coli R+TEM (ß-Lactamase-Träger). The description is as above. In kind it is cell-based. As to conditions: Escherichia coli, read-out: Minimale Hemmkonzentration E.coli R+TEM. The protocol:
as §1, §2, §3, §4, §5

The subject of assay [10] is Klebsiella pneumoniae BC 6. The description is as above. To be noted: BC6, liquid medium, 18 to 20 h at 37 °C, read-out: Minimale Hemmkonzentration Kl.pneum. BC 6. It counts as cell-based. As for the experimental part:
as §1, §2, §3, §4, §5

In the next assay the test system is E. coli ATCC 11 775. The assay can be described thus: In vivo activity, experimental intraperitoneal E. coli infection in mice. More on the design: species or system Mäuse. To be noted: Escherichia coli, ATCC11, sc, 168 h; female NMRI mice, i.p. E. coli infection, s.c. application once 1 h after infection, 7 days observation; dose at which 50 % of animals survive. As for the experimental part:
Eine Reihe von erfindungsgemäßen Verbindungen wurde in vivo bei experimentellen Infektionen an Mäusen untersucht. Man verwendete als pathogene Bakterien E. coli ATCC 11 775. Es wurde eine intraperitoneale Infektion mit 0,2 ml einer Bakteriensuspension (mit 5 % Mucin) gesetzt. Dies entspricht etwa 1,4 x 10^6 Keime E. coli/Maus. Weibliche Mäuse vom Stamm NMRI wurden in Gruppen von jeweils 10 Tieren aufgeteilt, zwei Gruppen blieben unbehandelt, die restlichen Gruppen wurden mit verschiedenen Dosen der jeweiligen erfindungsgemäßen Penicilline und Cephalosporine subcutan zur Bestimmung der ED50 (Dosis bei der 50 % der Tiere überleben) behandelt. Es wurde einmal eine Stunde: nach Setzen der Injektion therapiert.
Der Beobachtungszeitraum betrug in beiden Fällen 7 Tage. Die Ergebnisse dieser Teste mit repräsentativen Vertretern der erfindungsgemäßen Penicilline und Cephalosporine sind in der Tabelle 2 dargestellt.

A word on the ED50: it is the midpoint of the dose-response relation. Lower therefore signals an effect at a small dose. With `CCOC(=O)Oc1ccc([C@@H](NC(=O)Nc2cnc(Nc3ccc(S(N)(=O)=O)cc3)nc2O)C(=O)N[C@@H]2C(=O)N3[C@@H]2SC(C)(C)[C@@H]3C(=O)O)cc1` [A, D-α-[3-(2-p-Aminosulfonylanilino-4-hydroxy-5-pyrimidinyl)-ureido]-p-äthoxycarbonyloxy-benzylpenicillin-Natrium], the MIC in assay [1] was found to be 2 µg/mL (≈ 2.69 µM); in [2], 0.12 µg/mL (≈ 0.161 µM); in assay [3] it was 0.25 µg/mL (≈ 0.336 µM); in assay [4], 0.25 µg/mL (≈ 0.336 µM); in assay [5], 2 µg/mL (≈ 2.69 µM); in assay [6], 1 µg/mL (≈ 1.34 µM). In addition, the MIC in assay [7] is 0.5 µg/mL (≈ 0.671 µM); in the assay on Proteus rettgeri, 1 µg/mL (≈ 1.34 µM); in assay [8] it was 2 µg/mL (≈ 2.69 µM); in [9], more than 64 µg/mL; in assay [10], 2 µg/mL (≈ 2.69 µM). Moreover, in the assay with E. coli ATCC 11 775, the ED50 is 5.5 mg/kg.

Regarding `CC1(C)S[C@@H]2[C@H](NC(=O)[C@H](NC(=O)N3CCNC3=O)c3ccccc3)C(=O)N2[C@H]1C(=O)O` [Azlocillin, reference compound], the MIC in [1] was 32 µg/mL (≈ 69.3 µM); in [2] it was 2 µg/mL (≈ 4.33 µM); in assay [3], 8 to 16 µg/mL (≈ 17.3 to 34.7 µM); in assay [4], 4 µg/mL (≈ 8.67 µM); in assay [5] it was 8 µg/mL (≈ 17.3 µM); in assay [6], 32 µg/mL (≈ 69.3 µM). For the same compound, the MIC in [7] is 2 µg/mL (≈ 4.33 µM); in the assay with Proteus rettgeri it was 8 µg/mL (≈ 17.3 µM); in [8] it was 8 µg/mL (≈ 17.3 µM); in assay [9] it was more than 64 µg/mL; in assay [10], 32 µg/mL (≈ 69.3 µM). The compound also showed an ED50 in the assay with E. coli ATCC 11 775 of more than 100 mg/kg.

As for `CC(=O)Oc1ccc([C@@H](NC(=O)Nc2cnc(Nc3ccc(S(N)(=O)=O)cc3)nc2O)C(=O)N[C@@H]2C(=O)N3[C@@H]2SC(C)(C)[C@@H]3C(=O)O)cc1` [B, D-α-[3-(2-p-Aminosulfonylanilino-4-hydroxy-5-pyrimidinyl)-ureido]-p-methylcarbonyloxy-benzylpenicillin-Natrium], the MIC came to 4 µg/mL (≈ 5.6 µM) in assay [1]; 0.12 µg/mL (≈ 0.168 µM) in [2]; 0.25 µg/mL (≈ 0.35 µM) in assay [3]; 0.5 µg/mL (≈ 0.7 µM) in assay [4]; 4 µg/mL (≈ 5.6 µM) in assay [5]; 2 µg/mL (≈ 2.8 µM) in [6]. Besides, the MIC in assay [7] is 0.5 µg/mL (≈ 0.7 µM); in the assay on Proteus rettgeri it was 2 µg/mL (≈ 2.8 µM); in assay [8], 2 µg/mL (≈ 2.8 µM); in assay [9], more than 64 µg/mL; in [10], 2 µg/mL (≈ 2.8 µM). The compound further registered an ED50 in the assay with E. coli ATCC 11 775 of 4.5 mg/kg.

As for `CCOC(=O)Oc1ccc([C@@H](NC(=O)Nc2cnc(Nc3ccc(S(N)(=O)=O)cc3)nc2O)C(=O)N[C@@H]2C(=O)N3C(C(=O)O)=C(CSc4nnnn4C)CS[C@H]23)cc1` [C, Natrium-7-{D-α-[3-(2-p-aminosulfonylanilino-4-hydroxy-5-pyrimidinyl)-ureido]-p-äthoxy-carbonyloxy-phenylacetamido}-3-[(1-methyl-tetrazol-5-yl)-thiomethyl]-ceph-3-em-4-carboxylat], the MIC worked out at 0.5 µg/mL (≈ 0.584 µM) in [1]; 0.12 µg/mL (≈ 0.14 µM) in assay [2]; 0.12 µg/mL (≈ 0.14 µM) in assay [3]; 0.25 µg/mL (≈ 0.292 µM) in assay [4]; 8 µg/mL (≈ 9.34 µM) in assay [5]; 0.5 µg/mL (≈ 0.584 µM) in assay [6]. The MIC worked out at 1 µg/mL (≈ 1.17 µM) in assay [7]; 1 µg/mL (≈ 1.17 µM) with Proteus rettgeri; 4 µg/mL (≈ 4.67 µM) in [8]; 4 µg/mL (≈ 4.67 µM) in assay [9]; 0.25 µg/mL (≈ 0.292 µM) in assay [10]. Further, the 50% effect level with E. coli ATCC 11 775 (ED50) was put at a dose of 0.6 mg/kg.

As for `CO/N=C(\C(=O)N[C@@H]1C(=O)N2C(C(=O)O)=C(COC(N)=O)CS[C@H]12)c1ccco1` [Cefuroxim, reference compound], the MIC in assay [1] was 2 µg/mL (≈ 4.71 µM); in [2], 0.5 µg/mL (≈ 1.18 µM); in [3] it was 8 µg/mL (≈ 18.9 µM); in [4] it was 8 µg/mL (≈ 18.9 µM); in assay [5], more than 128 µg/mL; in [6], 32 µg/mL (≈ 75.4 µM). For the same compound, the MIC is 1 µg/mL (≈ 2.36 µM) in assay [7]; 2 µg/mL (≈ 4.71 µM) with Proteus rettgeri; more than 128 µg/mL in assay [8]; 4 µg/mL (≈ 9.43 µM) in assay [9]; 4 µg/mL (≈ 9.43 µM) in [10]. This compound came in with an ED50 in the assay on E. coli ATCC 11 775 of more than 100 mg/kg.

Turning to `CC(=O)Oc1ccc([C@@H](NC(=O)Nc2cnc(Nc3ccc(S(N)(=O)=O)cc3)nc2O)C(=O)N[C@@H]2C(=O)N3C(C(=O)O)=C(CSc4nnnn4C)CS[C@H]23)cc1` [D, Natrium-7-{D-α-[3-(2-p-aminosulfonyl-anilino-4-hydroxy-5-pyrimidinyl)-ureido]-p-methylcarbonyloxy-phenylacetamido}-3-[(1-methyl-tetrazol-5-yl)-thiomethyl]-ceph-3-em-4-carboxylat], the MIC came out at 2 µg/mL (≈ 2.42 µM) in assay [1]; 0.25 µg/mL (≈ 0.302 µM) in [2]; 0.5 µg/mL (≈ 0.605 µM) in assay [3]; 2 µg/mL (≈ 2.42 µM) in assay [4]; 16 µg/mL (≈ 19.4 µM) in assay [5]; 4 µg/mL (≈ 4.84 µM) in assay [6]. The MIC is 1 µg/mL (≈ 1.21 µM) in assay [7]; 2 µg/mL (≈ 2.42 µM) with Proteus rettgeri; 8 µg/mL (≈ 9.68 µM) in [8]; 16 µg/mL (≈ 19.4 µM) in assay [9]; 1 µg/mL (≈ 1.21 µM) in assay [10]. Moreover, the ED50 in the assay on E. coli ATCC 11 775 was determined as 3 mg/kg.
